The test concerns Trichophyton rubrum (ATCC-28188). Kind of test: Checkerboard assay of fatty acid/ester with antifungals on Trichophyton rubrum (ATCC 28188). The format is cell-based. Further details: key to FIC index: FIC index = sum of FICs; FIC = agent conc in well / agent MIC. Conditions: for Agent MIC: agent alone; for MIC: Trichophyton rubrum, ATCC28188, agent alone. As for the experimental part:
The synergy is measured by determining the fractional inhibitory concentration (FIC) value of the combination. This experimental set up, called checkerboard method, allows measurement of a desired effect (inhibition of fungal growth in this case) at different combinations of various concentrations of the two agents (antifungal agent and fatty acid/ester). […] No agent is added to the penultimate column on the right and the bottom row. The final column on the right is used for growth control (only inoculum in broth) and sterility control (broth alone, no inoculum). […] FIC value for each agent in a particular well of the checkerboard layout was calculated by dividing the agent concentration in that well by the established MIC value of the agent against the test organism (Hsieh et al., Synergy assessed by checkerboard: A critical Analysis, Diagn. Microbiol. Infect Dis. (1993) 16:343-349). FIC values for both agents in a particular well were calculated in this way followed by determination of the FIC index (sum of the FICs of each drug in the concerned well). […] Agents Chemother. (2010) 54(2): 602-609].
Using the checkerboard layout experimental setup described above (FIG. 1A), various medium-chain fatty acids were tested for their ability to potentiate the activity of a known antifungal agent. Concentrations above and below the MIC of each test agent were tested using serial dilution. The same procedure was expanded to test combinations of various medium-chain fatty acids C-1 to C-14 (such caprylic acid, undecylenic acid and lauric acid) and esters thereof, with antifungal agents from various classes including azoles, allylamines, benzylamines, zinc pyrithione and piroctone olamine against both susceptible and resistant Trichophyton spp. (filamentous fungus) and Candida spp. (yeast).
Potentiation of the activity of antimycotic agents using ester derivatives of medium chain fatty acids was tested in a standard, well accepted in vitro assay system to check for synergy. This experimental set up, called checkerboard method, allows measurement of a desired effect (inhibition of fungal growth in this case) at different combinations of various concentrations of two agents. A chosen medium chain fatty acid (C-1 to C-14) or its ester derivative was tested for its ability to potentiate the activity of a known antifungal agent (various classes) using the checkerboard layout. Various concentrations above and below the MIC of each test agent were tested using serial dilution in Sabouraud dextrose broth. […] FIC value for a drug in a particular well of the checkerboard layout is calculated by dividing the drug concentration in that well by the established MIC value of the drug against the test organism (Hsieh et al., Synergy assessed by checkerboard: A critical Analysis, Diagn. Microbiol. Infect Dis. (1993) 16:343-349). FIC values for both test agents in a particular well are calculated in this way followed by determination of the FIC index (sum of the FICs of each drug in the concerned well).

[1] abbreviates: Table 2, propylene glycol monocaprylate series.
[2] abbreviates: Table 3, glyceryl monocaprylate series.
The mark [3] stands for this setting: agent's MIC in combination antifungal + caprylic acid (partner: other agent of same combination no.).
[4] abbreviates: agent's MIC in combination antifungal + glyceryl monocaprylate (partner: other agent of same combination no.).
The mark [5] stands for this setting: antifungal in combination with caprylic acid.
The mark [6] stands for this setting: antifungal in combination with glyceryl monocaprylate.
Where [7] appears, read: antifungal in combination with propylene glycol monocaprylate.
Where [8] appears, read: combination antifungal + caprylic acid.
[9] abbreviates: combination antifungal + glyceryl monocaprylate.
[10] abbreviates: Table 4, undecylenic acid (C11) series.
The mark [11] stands for this setting: Table 6, propylene glycol monolaurate series.
Where [12] appears, read: agent's MIC in combination antifungal + propylene glycol monocaprylate (partner: other agent of same combination no.).
[13] abbreviates: agent's MIC in combination antifungal + propylene glycol monolaurate (partner: other agent of same combination no.).
Where [14] appears, read: agent's MIC in combination antifungal + undecylenic acid (partner: other agent of same combination no.).
[15] abbreviates: antifungal in combination with propylene glycol monolaurate.
Setting [16] is: antifungal in combination with undecylenic acid.
The mark [17] stands for this setting: combination antifungal + propylene glycol monocaprylate.
Where [18] appears, read: combination antifungal + propylene glycol monolaurate.
Setting [19] is: combination antifungal + undecylenic acid.
Setting [20] is: antifungal in combination with lauric acid.

The source of these data is patent US20190142800A1, “SYNERGISTIC ANTIFUNGAL COMPOSITIONS AND METHODS THEREOF” (VYOME THERAPEUTICS LIMITED, priority 2016, published 2019).

The MIC is the lowest concentration found to suppress growth.

As to Zinc pyrithione, the “Agent MIC” value reads like this: (Table 1, caprylic acid series) 3.125 µg/mL; under setting [1], 3.125 µg/mL; under setting [2], 3.125 µg/mL. In addition, the “Combination MIC” value by setting is: under setting [3], 0.195 µg/mL; under setting [4], 0.195 µg/mL. Moreover, the FIC index under setting [5] is 0.19, the FIC index under setting [6] was 0.3125 and the FIC index under setting [7] is recorded as 0.75. Moreover, the Interaction result under setting [5] is “Synergistic (Combinations that gave FIC indices less than 1 were designated “synergistic”)”, the Interaction entry under setting [6] is reported as “Synergistic (Combinations that gave FIC indices less than 1 were designated “synergistic”)” and the Interaction result under setting [7] is listed as “Synergistic (Combinations that gave FIC indices less than 1 were designated “synergistic”)”. The FIC by setting is: under setting [8], 0.06; under setting [9], 0.0625.

With `CC[C@H](C)C[C@H](C)CCCCCCCCC(=O)N[C@H]1C[C@@H](O)[C@@H](NCCN)NC(=O)[C@@H]2[C@@H](O)CCN2C(=O)[C@H]([C@H](O)CCN)NC(=O)[C@H]([C@H](O)[C@@H](O)c2ccc(O)cc2)NC(=O)[C@@H]2C[C@@H](O)CN2C(=O)[C@H]([C@@H](C)O)NC1=O` [Caspofungin], the minimal inhibitory concentration (MIC) reads like this: (Table 1, caprylic acid series) 64 µg/mL; under setting [1], 64 µg/mL; under setting [2], 64 µg/mL; under setting [10], 64 µg/mL; under setting [11], 64 µg/mL. Besides, the “Combination MIC” value under setting [3] came out at 16 µg/mL; the “Combination MIC” value under setting [4] came out at 2 µg/mL; the “Combination MIC” value under setting [12] amounted to 0.125 µg/mL; the “Combination MIC” value under setting [13] came to 0.125 µg/mL; the “Combination MIC” value under setting [14] is 16 µg/mL. For the same molecule, the FIC index is, setting by setting: under setting [5], 0.75; under setting [6], 0.531; under setting [7], 0.252; under setting [15], 0.502; under setting [16], 0.5. Besides, the Interaction result reads like this: under setting [5], “Synergistic (Combinations that gave FIC indices less than 1 were designated “synergistic”)”; under setting [6], “Synergistic (Combinations that gave FIC indices less than 1 were designated “synergistic”)”; under setting [7], “Synergistic (Combinations that gave FIC indices less than 1 were designated “synergistic”)”; under setting [15], “Synergistic (Combinations that gave FIC indices less than 1 were designated “synergistic”)”; under setting [16], “Synergistic (Combinations that gave FIC indices less than 1 were designated “synergistic”)”. The FIC was 0.25 under setting [8]; 0.031 under setting [9]; 0.002 under setting [17]; 0.002 under setting [18]; 0.25 under setting [19].

As to `Cc1cc(CC(C)CC(C)(C)C)n(O)c(=O)c1.NCCO` (stereo not shown) [Piroctone olamine], the “Agent MIC” value stood at 4 µg/mL (Table 1, caprylic acid series); 2.5 µg/mL under setting [1]; 4 µg/mL under setting [2]. In addition, the “Combination MIC” value by setting is: under setting [3], 2 µg/mL; under setting [4], 2 µg/mL. The FIC index under setting [5] was 0.75 and the FIC index under setting [6] was 0.562. Also, the Interaction result is, setting by setting: under setting [5], “Synergistic (Combinations that gave FIC indices less than 1 were designated “synergistic”)”; under setting [6], “Synergistic (Combinations that gave FIC indices less than 1 were designated “synergistic”)”; under setting [7], “Synergistic (Combinations that gave FIC indices less than 1 were designated “synergistic”)”. For the same molecule, the FIC runs as follows: under setting [8], 0.5; under setting [9], 0.5.

In the case of `C[C@@H]1[C@H](O)[C@@H](C)/C=C/C=C/C=C/C=C/C=C/C=C/C=C/[C@H](O[C@@H]2O[C@H](C)[C@@H](O)[C@H](N)[C@@H]2O)C[C@@H]2O[C@](O)(C[C@@H](O)C[C@@H](O)[C@H](O)CC[C@@H](O)C[C@@H](O)CC(=O)O[C@H]1C)C[C@H](O)[C@H]2C(=O)O` [Amphotericin B], the “Agent MIC” value was 0.5 µg/mL under setting [1]; 0.5 µg/mL under setting [10]; 0.5 µg/mL (Table 5, lauric acid (C12) series); 0.5 µg/mL under setting [11]. Also, the “Combination MIC” value turned out to be 0.125 µg/mL (agent's MIC in combination antifungal + lauric acid (partner: other agent of same combination no.)), 0.125 µg/mL under setting [12], 0.125 µg/mL under setting [13] and 0.06 µg/mL under setting [14]. Besides, the FIC index was found to be 0.75 under setting [20], 0.5 under setting [7], 0.5 under setting [15] and 0.62 under setting [16]. Moreover, the Interaction entry under setting [20] was “Synergistic (Combinations that gave FIC indices less than 1 were designated “synergistic”)”, the Interaction result under setting [7] is recorded as “Synergistic (Combinations that gave FIC indices less than 1 were designated “synergistic”)”, the Interaction result under setting [15] is “Synergistic (Combinations that gave FIC indices less than 1 were designated “synergistic”)” and the Interaction entry under setting [16] is reported as “Synergistic (Combinations that gave FIC indices less than 1 were designated “synergistic”)”. In addition, the FIC is recorded as 0.25 (combination antifungal + lauric acid), 0.25 under setting [17], 0.25 under setting [18] and 0.12 under setting [19].

For the molecule `Cc1cc(C2CCCCC2)n(O)c(=O)c1` [Ciclopirox], the MIC was 2 µg/mL (Table 1, caprylic acid series); 2 µg/mL under setting [1]; 2 µg/mL under setting [2]. Also, the “Combination MIC” value is, setting by setting: under setting [3], 0.5 µg/mL; under setting [4], 0.03 µg/mL; under setting [12], 0.06 µg/mL. Also, the FIC index runs as follows: under setting [5], 0.75; under setting [6], 0.501; under setting [7], 0.503. The Interaction result is, setting by setting: under setting [5], “Synergistic (Combinations that gave FIC indices less than 1 were designated “synergistic”)”; under setting [6], “Synergistic (Combinations that gave FIC indices less than 1 were designated “synergistic”)”; under setting [7], “Synergistic (Combinations that gave FIC indices less than 1 were designated “synergistic”)”. The FIC was 0.25 under setting [8], 0.015 under setting [9] and 0.03 under setting [17].
